Experimental data: US20240336566A1, “CRYSTALLINE FORMS OF A COMPOUND FOR THE TARGETED DEGRADATION OF THE ANDROGEN RECEPTOR” (Arvinas Operations, Inc., priority 2023, published 2024)

Assay: Primary crystallization screen: XRPD before and after drying at 40° C.
Type: physicochemical
Parameters: key to XRPD Pattern Post-Thermal Cycling / XRPD Pattern Anti-Solvent Addition / XRPD Pattern Evaporation / XRPD Pattern Post-Thermal Cycling (dried): 1—Free base Pattern 1; 2—Free base Pattern 2; 3—Free base Pattern 3; 4—Free base Pattern 4; S—Potential Salt Pattern 1; A—Amorphous; C—Counterion present; *—Poorly crystalline; t—Results obtained from temperature cycling; e—Results obtained from evaporation
Protocol: • 34×40 mg of Compound A was weighed into vials before the selected solvents were added to prepare slurries, where possible. See Table 29 for a list of solvent systems used and the volume of solvent used. • Stirrer bars were added to the vials, before the vials were sealed and temperature cycled with stirring between 5° C. and 40° C. The heating rate was 0.1° C./min and the samples were held at 5° C. and 40° C. for 2 hours. • After temperature cycling for 4 days, observations were made (see Table 29). Slurries were centrifuge filtered and the solids were analyzed by XRPD • The solids were dried at 40° C. for approximately 18 h before being re-analyzed by XRPD. • Saturated solutions were then split into 3 vials for the following experiments • Evaporation at ambient temperature • Cooling (5° C.). • Where no solids were obtained after 72 hours, the samples were moved to the freezer at −20° C. for further cooling. • Where no solids were obtained from further cooling, the samples were allowed to evaporate at ambient temperature. • Anti-solvent addition at ambient temperature. • Where no solids were obtained after 72 hours the samples were moved to the freezer at −20° C. to encourage crystallization. • Where no solids were obtained from cooling, the samples were allowed to evaporate at ambient temperature.

[1] = Acetonitrile:Water (75:25% v/v)
[2] = Dichloromethane:Methanol (50:50% v/v)
[3] = Dichloromethane:Methanol (75:25% v/v)

COc1cc(O[C@H]2C(C)(C)[C@H](NC(=O)c3ccc(N4CCC(CN5CCN(c6ccc(C(=O)N[C@H]7CCC(=O)NC7=O)c(F)c6)CC5)CC4)cc3)C2(C)C)ccc1C#N [Compound A, 4-(4-((1-(4-(((1R,3R)-3-(4-cyano-3-methoxyphenoxy)-2,2,4,4-tetramethylcyclobutyl)carbamoyl)phenyl)piperidin-4-yl)methyl)piperazin-1-yl)-N—((S)-2,6-dioxopiperidin-3-yl)-2-fluorobenzamide]
XRPD Pattern Anti-Solvent Addition (1,4-Dioxane): A | XRPD Pattern Cooling (1,4-Dioxane): A e | XRPD Pattern Evaporation (1,4-Dioxane): A x | XRPD Pattern Post-Thermal Cycling (1,4-Dioxane): A | XRPD Pattern Post-Thermal Cycling (dried) (1,4-Dioxane): A * | XRPD Pattern Evaporation (1-Propanol): A | XRPD Pattern Evaporation (2-Butanone (MEK)): 1 | XRPD Pattern Evaporation (Acetone:Water (90:10% v/v)): 2 | XRPD Pattern Anti-Solvent Addition (Acetonitrile): A x | XRPD Pattern Evaporation (Acetonitrile): A + | XRPD Pattern Post-Thermal Cycling (Acetonitrile): 1 | XRPD Pattern Post-Thermal Cycling (dried) (Acetonitrile): 1 | XRPD Pattern Evaporation [1]: 6 (6—Free base Pattern 6) | XRPD Pattern Post-Thermal Cycling [1]: 6 (6—Free base Pattern 6) | XRPD Pattern Post-Thermal Cycling (dried) [1]: 6 (6—Free base Pattern 6) | XRPD Pattern Post-Thermal Cycling (Anisole): 5 (5—Free base Pattern 5) | XRPD Pattern Post-Thermal Cycling (dried) (Anisole): 8 (8—Free base Pattern 8) | XRPD Pattern Post-Thermal Cycling (Butyl acetate): 1 | XRPD Pattern Post-Thermal Cycling (dried) (Butyl acetate): 1 | XRPD Pattern Post-Thermal Cycling (Dichloromethane): 6 (6—Free base Pattern 6) | XRPD Pattern Post-Thermal Cycling (dried) (Dichloromethane): 6 (6—Free base Pattern 6) | XRPD Pattern Post-Thermal Cycling [2]: 2 | XRPD Pattern Post-Thermal Cycling (dried) [2]: 2 | XRPD Pattern Anti-Solvent Addition [3]: A | XRPD Pattern Cooling [3]: A e | XRPD Pattern Evaporation (Diethyl ether): A x | XRPD Pattern Evaporation (Ethanol): A x | XRPD Pattern Evaporation (Ethanol:Water (50:50% v/v)): A x | XRPD Pattern Post-Thermal Cycling (Ethyl acetate): 1 | XRPD Pattern Post-Thermal Cycling (dried) (Ethyl acetate): 1 | XRPD Pattern Evaporation (Isopropyl acetate): A x | XRPD Pattern Cooling (Methanol): A e | XRPD Pattern Evaporation (Methanol): A x | XRPD Pattern Evaporation (Methylisobutyl ketone): A x | XRPD Pattern Post-Thermal Cycling (Methylisobutyl ketone): 1 | XRPD Pattern Post-Thermal Cycling (dried) (Methylisobutyl ketone): 1 | XRPD Pattern Anti-Solvent Addition (N,N′-Dimethylacetamide): 1 | XRPD Pattern Anti-Solvent Addition (N,N′-Dimethylformamide): 1 | XRPD Pattern Cooling (N,N′-Dimethylformamide): A e | XRPD Pattern Evaporation (N,N′-Dimethylformamide): 1 | XRPD Pattern Post-Thermal Cycling (Tetrahydrofuran): 1 | XRPD Pattern Post-Thermal Cycling (dried) (Tetrahydrofuran): 1 | XRPD Pattern Anti-Solvent Addition (Tetrahydrofuran:Water (98:2% v/v)): A | XRPD Pattern Post-Thermal Cycling (Toluene): 7 (7—Free base Pattern 7) | XRPD Pattern Post-Thermal Cycling (dried) (Toluene): 8 (8—Free base Pattern 8) | XRPD Pattern Post-Thermal Cycling (Water): A | XRPD Pattern Post-Thermal Cycling (dried) (Water): A
